molecular target: Tripeptidyl-peptidase 2 (Rattus norvegicus, UniProt Q64560); experiment: Inhibition of Tripeptidyl-peptidase II purified from a rat liver post-lysosomal fraction.
Sequence (Q64560 whole entry): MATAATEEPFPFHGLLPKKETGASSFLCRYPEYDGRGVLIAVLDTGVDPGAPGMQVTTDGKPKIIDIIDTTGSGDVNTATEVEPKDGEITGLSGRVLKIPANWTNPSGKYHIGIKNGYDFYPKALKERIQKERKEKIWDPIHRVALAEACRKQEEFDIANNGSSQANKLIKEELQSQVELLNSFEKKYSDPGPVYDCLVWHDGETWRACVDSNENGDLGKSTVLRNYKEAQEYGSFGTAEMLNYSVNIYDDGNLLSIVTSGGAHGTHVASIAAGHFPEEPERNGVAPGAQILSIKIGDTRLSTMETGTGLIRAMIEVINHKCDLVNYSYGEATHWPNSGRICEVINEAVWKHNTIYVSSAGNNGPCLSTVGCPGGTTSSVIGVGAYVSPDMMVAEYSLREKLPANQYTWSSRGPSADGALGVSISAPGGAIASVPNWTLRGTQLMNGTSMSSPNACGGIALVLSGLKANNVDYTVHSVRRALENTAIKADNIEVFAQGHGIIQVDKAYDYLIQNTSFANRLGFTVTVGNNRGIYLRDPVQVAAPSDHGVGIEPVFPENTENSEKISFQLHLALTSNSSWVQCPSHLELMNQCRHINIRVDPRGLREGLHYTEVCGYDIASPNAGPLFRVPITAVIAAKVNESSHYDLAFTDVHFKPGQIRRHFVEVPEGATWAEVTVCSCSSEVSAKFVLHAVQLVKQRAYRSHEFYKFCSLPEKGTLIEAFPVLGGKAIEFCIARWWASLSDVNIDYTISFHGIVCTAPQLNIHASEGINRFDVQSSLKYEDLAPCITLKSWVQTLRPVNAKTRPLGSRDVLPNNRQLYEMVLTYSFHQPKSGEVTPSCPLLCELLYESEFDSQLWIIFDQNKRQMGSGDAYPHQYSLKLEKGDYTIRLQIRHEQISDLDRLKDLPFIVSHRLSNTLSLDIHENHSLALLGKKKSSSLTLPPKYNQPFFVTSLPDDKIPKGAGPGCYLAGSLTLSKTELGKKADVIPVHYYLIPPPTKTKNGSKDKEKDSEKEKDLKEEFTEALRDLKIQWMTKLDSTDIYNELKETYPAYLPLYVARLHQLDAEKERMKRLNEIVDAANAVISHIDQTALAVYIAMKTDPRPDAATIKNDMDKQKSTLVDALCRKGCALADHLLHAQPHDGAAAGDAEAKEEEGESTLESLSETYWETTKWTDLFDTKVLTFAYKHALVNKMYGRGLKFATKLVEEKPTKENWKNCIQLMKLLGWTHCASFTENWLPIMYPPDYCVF

Row | SMILES | IC50 [nM]
1 | CCCc1cnc([C@@H]2Cc3cc(F)ccc3N2C(=O)CN)[nH]1 | 46
2 | CCCc1[nH]c([C@@H]2Cc3ccccc3N2C(=O)CN)nc1C(=O)OCC | 210
3 | CCc1c[nH]c([C@@H]2Cc3ccccc3N2C(=O)CN)n1 | 194
4 | CCCCc1cnc([C@@H]2Cc3ccccc3N2C(=O)CN)[nH]1 | 50
5 | C[C@H](N)C(=O)N1c2ccccc2C[C@H]1c1nc2ccccc2[nH]1 | 1400
6 | CCCc1cnc([C@@H]2Cc3ccccc3N2C(=O)c2ccccc2[N+](=O)[O-])[nH]1 | > 10000
7 | CCc1cnc([C@@H]2Cc3ccccc3N2C(=O)CN)s1 | 7700
8 | CCCc1cnc([C@@H]2Cc3ccccc3N2C(=O)c2cccc([N+](=O)[O-])c2)[nH]1 | > 10000
9 | CCCc1cnc([C@@H]2Cc3ccccc3N2C(=O)CCN)[nH]1 | > 10000
10 | CCc1c[nH]c([C@@H]2Cc3ccccc3N2C(=O)[C@H](C)N)n1 | 23
11 | CCCc1cnc([C@@H]2Cc3ccccc3N2C(=O)c2ccccc2N)[nH]1 | > 10000
12 | CCCc1c[nH]c([C@@H]2Cc3cc(Cl)ccc3N2C(=O)CN)n1 | 11
13 | CCCc1c[nH]c([C@@H]2Cc3ccccc3N2C(=O)[C@H](N)CC)n1 | 4
14 | CCCc1c[nH]c([C@@H]2Cc3ccccc3N2C(=O)[C@@H](N)CCC)n1 | 4
15 | CCCc1c[nH]c([C@@H]2CCc3ccccc3N2C(=O)[C@H](C)N)n1 (stereo in doubt; form 1) | 800
16 | CCCc1cnc([C@@H]2Cc3cc(Cl)ccc3N2C(=O)[C@H](C)N)[nH]1 | 5
17 | CCc1cn(C)c([C@@H]2Cc3ccccc3N2C(=O)CN)n1 | 2100
18 | NCC(=O)N1c2ccccc2C[C@H]1c1nc(-c2ccccc2)c[nH]1 | > 10000

Row | SMILES | IC50 [nM]
19 | CCCc1nc([C@@H]2Cc3ccccc3N2C(=O)CN)[nH]c1C(N)=O | 200
20 | CCCc1[nH]c([C@@H]2Cc3ccccc3N2C(=O)CN)nc1C(=O)NCC(=O)OC | 135
21 | CCCc1c[nH]c([C@@H]2Cc3cc(OC)ccc3N2C(=O)[C@H](C)N)n1 | 16
22 | CCCc1c[nH]c([C@@H]2Cc3ccccc3N2C(=O)CN)n1 | 36
23 | CCCc1c[nH]c([C@@H]2Cc3ccccc3N2C(=O)c2c[nH]cn2)n1 | > 10000
24 | CCCc1nnc([C@@H]2Cc3ccccc3N2C(=O)CN)[nH]1 | > 10000
25 | CCc1cnc([C@@H]2Cc3ccccc3N2C(=O)CN)n1C | > 10000
26 | CCC(N)C(=O)N1c2ccccc2C[C@H]1c1nc2ccccc2[nH]1 (stereo partly specified) | 450
27 | CCCc1cnc([C@@H]2Cc3ccccc3N2C(=O)[C@H]2CCCN2)[nH]1 | 1400
28 | CCCc1c[nH]c([C@@H]2CCc3ccccc3N2C(=O)[C@H](C)N)n1 (stereo in doubt; form 2) | 400
29 | CCCc1nnc([C@@H]2Cc3ccccc3N2C(=O)CN)o1 | 2200
30 | CCCc1c[nH]c([C@@H]2Cc3ccccc3N2C(=O)[C@@H](N)C(C)C)n1 | 20
31 | CCCc1c[nH]c([C@@H]2Cc3cc(OC)ccc3N2C(=O)CN)n1 | 70
32 | CCCc1cnc([C@@H]2Cc3ccccc3N2C(=O)[C@@H](N)Cc2ccccc2)[nH]1 | 2300
33 | CCCc1c[nH]c([C@@H]2Cc3ccccc3N2C(=O)[C@H](C)NC)n1 | > 10000
34 | CCCc1[nH]c([C@@H]2Cc3ccccc3N2C(=O)CN)nc1C | 55
35 | CCc1cnc([C@@H]2Cc3ccccc3N2C[C@H](C)N)[nH]1 | > 10000
36 | CCCc1c[nH]c([C@@H]2Cc3ccccc3N2C(=O)c2cccc(N)c2)n1 | > 10000

Reference: ChEMBL document CHEMBL1136499, “Tripeptidyl-peptidase II (TPP II) inhibitory activity of (S)-2,3-dihydro-2-(1H-imidazol-2-yl)-1H-indoles, a systematic SAR evaluation. Part 2” (Bioorg Med Chem Lett, 2003)
